For assay [1], the system named is Apt-14t (AuNP assay) (DNA, aptamer) ACGGCCAGTGGGTGGGGCGGGTGGCGGCCGGTTGTTTCTATGC
In words: AuNP colorimetry (A650/A520). To be noted: 100 mM NaCl, 5 mM KCl, 2 mM MgCl2, 1 mM CaCl2; binding buffer pH 7.6, 37 °C; 200 nM aptamer; NaCl added after binding to aggregate AuNPs.

Assay [2] concerns Apt-14 (DNA, aptamer) GCTGTGTGACTCCTGCAAACGGCCAGTGGGTGGGGCGGGTGGCGGCCGGTTGTTTCTATGCGCAGCTGTATCTTGTCTCC
In words: graphene oxide fluorescence recovery (FAM). To be noted: 100 mM NaCl, 5 mM KCl, 2 mM MgCl2, 1 mM CaCl2; 20 mM Tris-HCl pH 7.6 (binding buffer); aptamer titrated at fixed FF (1 M [sic]); GO:ssDNA 20:1.

Assay [3] deals with Apt-14t (DNA, aptamer) ACGGCCAGTGGGTGGGGCGGGTGGCGGCCGGTTGTTTCTATGC
Description: graphene oxide fluorescence recovery (FAM). The settings on record: 100 mM NaCl, 5 mM KCl, 2 mM MgCl2, 1 mM CaCl2; for binding: binding buffer pH 7.6, 100 nM aptamer, 1 µM compound.

In assay [4] the test system is Apt-1 (DNA, aptamer) GCTGTGTGACTCCTGCAAGGTCCTCGGGTGGTGGGTGGGCTCGGGTTTTTGTTCACTCTCCGCAGCTGTATCTTGTCTCC
Description: graphene oxide fluorescence recovery (FAM). To be noted: 100 mM NaCl, 5 mM KCl, 2 mM MgCl2, 1 mM CaCl2; 20 mM Tris-HCl pH 7.6 (binding buffer); aptamer titrated at fixed FF (1 M [sic]).

In assay [5] the test system is Apt-15 (DNA, aptamer) GCTGTGTGACTCCTGCAACACGAACGTTTCCGTGGGTGGGTGGGTGGCCAAATGTCGCGTGGCAGCTGTATCTTGTCTCC
In words: graphene oxide fluorescence recovery (FAM). The settings on record: 100 mM NaCl, 5 mM KCl, 2 mM MgCl2, 1 mM CaCl2; 20 mM Tris-HCl pH 7.6 (binding buffer); aptamer titrated at fixed FF (1 M [sic]).

The test system of assay [6] is Apt-20 (DNA, aptamer) GCTGTGTGACTCCTGCAAGCGCAATGATGTGTTGTGGGTGGGCGGGTGGCTCATTGCGTGGGCAGCTGTATCTTGTCTCC
In words: graphene oxide fluorescence recovery (FAM). To be noted: 100 mM NaCl, 5 mM KCl, 2 mM MgCl2, 1 mM CaCl2; 20 mM Tris-HCl pH 7.6 (binding buffer); aptamer titrated at fixed FF (1 M [sic]).

SMILES strings stand for the structures.

Usually Kd stands for the concentration at which binding is half-saturated. Take `CS(=O)(=O)c1ccc([C@@H](O)[C@@H](CF)NC(=O)C(Cl)Cl)cc1`: the binding entry in assay [1] is “yes”. The dissociation constant (Kd) turned out to be 0.03465 ± 0.0057 µM in assay [2]; 0.00466 ± 0.00075 µM in assay [3] (20 mM Tris-HCl pH 7.6 (binding buffer), aptamer titrated 0-200 nM at fixed FF (1 M [sic])); 0.0709 ± 0.02236 µM in assay [4]; 0.05741 ± 0.018 µM in assay [5]; 0.05944 ± 0.0169 µM in assay [6].
Take `CS(=O)(=O)c1ccc([C@@H](O)[C@@H](CO)NC(=O)C(Cl)Cl)cc1`: the binding result in assay [3] was “weak”.
Take `CS(=O)(=O)c1ccc([C@@H](O)[C@H](N)CF)cc1`: the binding result in assay [1] and in assay [3] was “yes” throughout.
For `O=C(N[C@H](CO)[C@H](O)c1ccc([N+](=O)[O-])cc1)C(Cl)Cl`, the binding result in assay [3] is “weak”.

These data come from publication PMC9496042 (2022).
